Laboratory results reported in PubChem BioAssay (NCI).
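Here, GI50 denotes the concentration required for 50% inhibition of growth. TGI denotes the concentration required for complete inhibition of growth.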

Legend:
Assay in all cases: NCI anticancer screen, dose series, 384-well format
COLO 205 colon = test system: COLO 205 colon
HCC-2998 colon = test system: HCC-2998 colon
U251 glioblastoma = test system: U251 glioblastoma
SF-295 CNS = test system: SF-295 CNS
HL-60(TB) leukemia = test system: HL-60(TB) leukemia
HCT-15 colon = test system: HCT-15 colon
SF-539 CNS = test system: SF-539 CNS
CAKI-1 renal = test system: CAKI-1 renal
K-562 leukemia = test system: K-562 leukemia
KM12 colon = test system: KM12 colon
UO-31 renal = test system: UO-31 renal
HT29 colon = test system: HT29 colon
OVCAR-5 ovarian = test system: OVCAR-5 ovarian
NCI-H322M lung = test system: NCI-H322M lung
EKVX NSCLC = test system: EKVX NSCLC
MDA-MB-231 breast = test system: MDA-MB-231 breast
SK-OV-3 ovarian = test system: SK-OV-3 ovarian
786-0 renal = test system: 786-0 renal
SK-MEL-28 melanoma = test system: SK-MEL-28 melanoma
NCI-H522 lung = test system: NCI-H522 lung
UACC-62 melanoma = test system: UACC-62 melanoma
IGROV1 ovarian = test system: IGROV1 ovarian
SN12C renal = test system: SN12C renal
PC-3 prostate = test system: PC-3 prostate
SNB-75 CNS = test system: SNB-75 CNS
NCI-H23 lung = test system: NCI-H23 lung
A549 NSCLC = test system: A549 NSCLC
OVCAR-8 ovarian = test system: OVCAR-8 ovarian
M14 melanoma = test system: M14 melanoma
DU-145 prostate = test system: DU-145 prostate
TK-10 renal = test system: TK-10 renal
NCI/ADR-RES ovarian = test system: NCI/ADR-RES ovarian
NCI-H226 lung = test system: NCI-H226 lung
HOP-62 NSCLC = test system: HOP-62 NSCLC
ACHN renal = test system: ACHN renal
MCF7 breast = test system: MCF7 breast
T-47D breast = test system: T-47D breast
MDA-MB-468 breast = test system: MDA-MB-468 breast
HCT-116 colon = test system: HCT-116 colon
LOX IMVI melanoma = test system: LOX IMVI melanoma
MALME-3M melanoma = test system: MALME-3M melanoma
RPMI-8226 leukemia = test system: RPMI-8226 leukemia
SK-MEL-2 melanoma = test system: SK-MEL-2 melanoma
HS 578T breast = test system: HS 578T breast
OVCAR-3 ovarian = test system: OVCAR-3 ovarian
A498 renal = test system: A498 renal
MDA-MB-435 melanoma = test system: MDA-MB-435 melanoma
SK-MEL-5 melanoma = test system: SK-MEL-5 melanoma
SNB-19 CNS = test system: SNB-19 CNS
SF-268 CNS = test system: SF-268 CNS
NCI-H460 NSCLC = test system: NCI-H460 NSCLC
MOLT-4 leukemia = test system: MOLT-4 leukemia
OVCAR-4 ovarian = test system: OVCAR-4 ovarian
SW-620 colon = test system: SW-620 colon
HOP-92 NSCLC = test system: HOP-92 NSCLC
UACC-257 melanoma = test system: UACC-257 melanoma
RXF 393 renal = test system: RXF 393 renal
SR leukemia = test system: SR leukemia
BT-549 breast = test system: BT-549 breast

## COc1cc(OC)cc(N(CCNC(C)C)c2ccc3ncc(-c4cnn(C)c4)nc3c2)c1
COLO 205 colon
  GI50: 4.59 µM
  TGI: 12.6 µM
HCC-2998 colon
  GI50: 4.52 µM
  TGI: 9.47 µM
U251 glioblastoma
  GI50: 5.92 µM
  TGI: 14.8 µM
SF-295 CNS
  GI50: 9.3 µM
  TGI: 18.3 µM
HL-60(TB) leukemia
  GI50: 2.51 µM
  TGI: 4.65 µM
HCT-15 colon
  GI50: 2.99 µM
  TGI: 10.1 µM
SF-539 CNS
  GI50: 0.946 µM
  TGI: 7.77 µM
CAKI-1 renal
  GI50: 1.59 µM
  TGI: 4.16 µM
K-562 leukemia
  GI50: 0.89 µM
  TGI: 2.15 µM
KM12 colon
  GI50: 4.88 µM
  TGI: 16.1 µM
UO-31 renal
  GI50: 3.04 µM
  TGI: 8.81 µM
HT29 colon
  GI50: 3.97 µM
  TGI: 11.2 µM
OVCAR-5 ovarian
  GI50: 5.47 µM
  TGI: 17 µM
NCI-H322M lung
  GI50: 3.88 µM
  TGI: 12.9 µM
EKVX NSCLC
  GI50: 7.26 µM
  TGI: 15.7 µM
MDA-MB-231 breast
  GI50: 2.75 µM
  TGI: 8.18 µM
SK-OV-3 ovarian
  GI50: 2.01 µM
  TGI: 5.35 µM
786-0 renal
  GI50: 2.17 µM
  TGI: 5.11 µM
SK-MEL-28 melanoma
  GI50: 6.2 µM
  TGI: 16.4 µM
NCI-H522 lung
  GI50: 3.44 µM
  TGI: 10.3 µM
UACC-62 melanoma
  GI50: 3.49 µM
  TGI: 12.4 µM
IGROV1 ovarian
  GI50: 2.19 µM
  TGI: 5.78 µM
SN12C renal
  GI50: 3.19 µM
  TGI: 10.8 µM
PC-3 prostate
  GI50: 3.61 µM
  TGI: 13.1 µM
SNB-75 CNS
  GI50: 0.132 µM
  TGI: 1.69 µM
NCI-H23 lung
  GI50: 4.66 µM
  TGI: 13.5 µM
A549 NSCLC
  GI50: 3.73 µM
  TGI: 11.2 µM
OVCAR-8 ovarian
  GI50: 5.09 µM
  TGI: 14.1 µM
M14 melanoma
  GI50: 2.85 µM
  TGI: 7.68 µM
DU-145 prostate
  GI50: 4.12 µM
  TGI: 14 µM
TK-10 renal
  GI50: 2.79 µM
  TGI: 10.1 µM
NCI/ADR-RES ovarian
  GI50: 3.56 µM
  TGI: 11.8 µM
NCI-H226 lung
  GI50: 2.57 µM
  TGI: 11 µM
HOP-62 NSCLC
  GI50: 4.16 µM
  TGI: 13 µM
ACHN renal
  GI50: 2.03 µM
  TGI: 5.45 µM
MCF7 breast
  GI50: 7.81 µM
  TGI: 15.3 µM
T-47D breast
  GI50: 6.41 µM
  TGI: 12.6 µM
MDA-MB-468 breast
  GI50: 2.01 µM
  TGI: 4.47 µM
HCT-116 colon
  GI50: 2.96 µM
  TGI: 9.31 µM
LOX IMVI melanoma
  GI50: 2.71 µM
  TGI: 6.09 µM
MALME-3M melanoma
  GI50: 2.27 µM
  TGI: 4.97 µM
RPMI-8226 leukemia
  GI50: 3.68 µM
  TGI: 12.3 µM
SK-MEL-2 melanoma
  GI50: 2.15 µM
  TGI: 4.8 µM
HS 578T breast
  GI50: 1.5 µM
  TGI: 3.73 µM
OVCAR-3 ovarian
  GI50: 3.62 µM
  TGI: 13.1 µM
A498 renal
  GI50: 2.68 µM
  TGI: 8.53 µM
MDA-MB-435 melanoma
  GI50: 3.49 µM
  TGI: 10.6 µM
SK-MEL-5 melanoma
  GI50: 1.66 µM
  TGI: 3.66 µM
SNB-19 CNS
  GI50: 9.29 µM
  TGI: 22 µM
SF-268 CNS
  GI50: 4.42 µM
  TGI: 15.9 µM
NCI-H460 NSCLC
  GI50: 2.63 µM
  TGI: 7.1 µM
MOLT-4 leukemia
  GI50: 1.51 µM
  TGI: 2.93 µM
OVCAR-4 ovarian
  GI50: 4.66 µM
  TGI: 17.1 µM
SW-620 colon
  GI50: 4.34 µM
  TGI: 14.2 µM
HOP-92 NSCLC
  GI50: 2.91 µM
  TGI: 9.38 µM
UACC-257 melanoma
  GI50: 2.28 µM
  TGI: 4.72 µM
RXF 393 renal
  GI50: 1.02 µM
  TGI: 2.89 µM
SR leukemia
  GI50: 1.57 µM
  TGI: 2.94 µM
BT-549 breast
  GI50: 0.63 µM
  TGI: 5.83 µM
